From the supplement of paper PMC10627819

What was measured:
Assay in all cases: Bliss interaction score (quartile over a dose matrix) (fitness difference); higher = more antagonism (negative = synergy)
S. aureus DSM 20231 = system: S. aureus DSM 20231
Outline: (§1)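 OD595 was read at entry into stationary phase and expressed relative to the robust mean of the no-drug wells on the same plate, capped at 1. The resulting ratio is the fitness value. The Bliss score, observed fitness minus product-based expected fitness with single-drug fitness inferred from combinations, is summarised by quartiles over technical, biological and donor/recipient replicates.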

S. aureus Newman = system: S. aureus Newman
Outline: as §1

B. subtilis 168 = system: B. subtilis 168
Outline: as §1

S. pneumoniae D39V = system: S. pneumoniae D39V
Outline: as §1
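Further: first quartile when negative (synergy) and third quartile when positive (antagonism).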

Compound	Bliss interaction score (S. aureus DSM 20231)	Bliss interaction score (S. aureus Newman)	Bliss interaction score (B. subtilis 168)	Bliss interaction score (S. pneumoniae D39V)	Bliss interaction score (S. aureus DSM 20231; main component drawn)	Bliss interaction score (S. aureus Newman; main component drawn)	Bliss interaction score (B. subtilis 168; main component drawn)	Bliss interaction score (S. pneumoniae D39V; main component drawn)
CC[C@H]1OC(=O)[C@H](C)[C@@H](O[C@H]2C[C@@](C)(OC)[C@@H](O)[C@H](C)O2)[C@H](C)[C@@H](O[C@@H]2O[C@H](C)C[C@H](N(C)C)[C@H]2O)[C@](C)(O)C[C@@H](C)C(=O)[C@H](C)[C@@H](O)[C@]1(C)O [Erythromycin] + CC(=O)O[C@H]1C[C@@]2(C)[C@@H](C[C@@H](O)[C@H]3[C@@]4(C)CC[C@@H](O)[C@@H](C)[C@@H]4CC[C@@]32C)/C1=C(\CCC=C(C)C)C(=O)O [Fusidic acid]	0.0374	-0.0241	-0.057	-0.1	–	–	–	–
CC[C@H]1OC(=O)[C@H](C)[C@@H](O[C@H]2C[C@@](C)(OC)[C@@H](O)[C@H](C)O2)[C@H](C)[C@@H](O[C@@H]2O[C@H](C)C[C@H](N(C)C)[C@H]2O)[C@](C)(O)C[C@@H](C)C(=O)[C@H](C)[C@@H](O)[C@]1(C)O [Erythromycin] + CN[C@H](CC(C)C)C(=O)N[C@H]1C(=O)N[C@@H](CC(N)=O)C(=O)N[C@H]2C(=O)N[C@H]3C(=O)N[C@H](C(=O)N[C@H](C(=O)O)c4cc(O)cc(O)c4-c4cc3ccc4O)[C@H](O[C@H]3C[C@](C)(N)[C@@H](O)[C@H](C)O3)c3ccc(c(Cl)c3)Oc3cc2cc(c3O[C@@H]2O[C@H](CO)[C@@H](O)[C@H](O)[C@H]2O[C@H]2C[C@](C)(NCc3ccc(-c4ccc(Cl)cc4)cc3)[C@@H](O)[C@H](C)O2)Oc2ccc(cc2Cl)[C@H]1O [Oritavancin]	-0.023	0.0605	0.0299	0.046	–	–	–	–
CN[C@H](CC(C)C)C(=O)N[C@H]1C(=O)N[C@@H](CC(N)=O)C(=O)N[C@H]2C(=O)N[C@H]3C(=O)N[C@H](C(=O)N[C@H](C(=O)O)c4cc(O)cc(O)c4-c4cc3ccc4O)[C@H](O[C@H]3C[C@](C)(N)[C@@H](O)[C@H](C)O3)c3ccc(c(Cl)c3)Oc3cc2cc(c3O[C@@H]2O[C@H](CO)[C@@H](O)[C@H](O)[C@H]2O[C@H]2C[C@](C)(NCc3ccc(-c4ccc(Cl)cc4)cc3)[C@@H](O)[C@H](C)O2)Oc2ccc(cc2Cl)[C@H]1O [Oritavancin] + Oc1cc(Cl)ccc1Oc1ccc(Cl)cc1Cl [Triclosan]	0.108	-0.0473	0.0201	0.102	–	–	–	–
CO[C@@]12[C@H](COC(N)=O)C3=C(C(=O)C(C)=C(N)C3=O)N1C[C@@H]1N[C@@H]12 [MitomycinC] + CO[C@@H]1[C@@H](OC(N)=O)[C@@H](O)[C@H](Oc2ccc3c(O)c(NC(=O)c4ccc(O)c(CC=C(C)C)c4)c(=O)oc3c2C)OC1(C)C [Novobiocin]	-0.0588	-0.137	-0.117	-0.11	–	–	–	–
CC(=O)NC[C@H]1CN(c2ccc(N3CCOCC3)c(F)c2)C(=O)O1 [Linezolid] + CN[C@H](CC(C)C)C(=O)N[C@H]1C(=O)N[C@@H](CC(N)=O)C(=O)N[C@H]2C(=O)N[C@H]3C(=O)N[C@H](C(=O)N[C@H](C(=O)O)c4cc(O)cc(O)c4-c4cc3ccc4O)[C@H](O[C@H]3C[C@](C)(N)[C@@H](O)[C@H](C)O3)c3ccc(c(Cl)c3)Oc3cc2cc(c3O[C@@H]2O[C@H](CO)[C@@H](O)[C@H](O)[C@H]2O[C@H]2C[C@](C)(NCc3ccc(-c4ccc(Cl)cc4)cc3)[C@@H](O)[C@H](C)O2)Oc2ccc(cc2Cl)[C@H]1O [Oritavancin]	-0.0323	-0.0463	0.0399	0.0845	–	–	–	–
CC[C@H]1OC(=O)[C@H](C)[C@@H](O[C@H]2C[C@@](C)(OC)[C@@H](O)[C@H](C)O2)[C@H](C)[C@@H](O[C@@H]2O[C@H](C)C[C@H](N(C)C)[C@H]2O)[C@](C)(O)C[C@@H](C)C(=O)[C@H](C)[C@@H](O)[C@]1(C)O [Erythromycin] + Cc1ncc([N+](=O)[O-])n1CCO [Metronidazole]	-0.0288	-0.0396	-0.0335	0.0719	–	–	–	–
CC[C@H]1OC(=O)[C@H](C)[C@@H](O[C@H]2C[C@@](C)(OC)[C@@H](O)[C@H](C)O2)[C@H](C)[C@@H](O[C@@H]2O[C@H](C)C[C@H](N(C)C)[C@H]2O)[C@](C)(O)C[C@@H](C)C(=O)[C@H](C)[C@@H](O)[C@]1(C)O [Erythromycin] + CN(N=O)C(=O)N[C@@H](C=O)[C@@H](O)[C@H](O)[C@H](O)CO [Streptozotocin]	-0.0271	-0.0533	-0.0271	-0.0459	–	–	–	–
CO[C@@H]1[C@@H](OC(N)=O)[C@@H](O)[C@H](Oc2ccc3c(O)c(NC(=O)c4ccc(O)c(CC=C(C)C)c4)c(=O)oc3c2C)OC1(C)C [Novobiocin] + Oc1cc(Cl)ccc1Oc1ccc(Cl)cc1Cl [Triclosan]	0.0686	-0.0304	0.0532	0.177	–	–	–	–
CC[C@H](C)[C@H](N)C1=N[C@H](C(=O)N[C@@H](CC(C)C)C(=O)N[C@H](CCC(=O)O)C(=O)N[C@H](C(=O)N[C@H]2CCCCNC(=O)[C@H](CC(N)=O)NC(=O)[C@@H](CC(=O)O)NC(=O)[C@H](Cc3cnc[nH]3)NC(=O)[C@@H](Cc3ccccc3)NC(=O)[C@H]([C@@H](C)CC)NC(=O)[C@@H](CCCN)NC2=O)[C@@H](C)CC)CS1 [Bacitracin] + O=C(O)[C@H]1/C(=C/CO)O[C@@H]2CC(=O)N21 [Clavulanic]	–	–	–	–	-0.0375	0.241	0.107	-0.0867
